Values after ≈ are worked out from the molar mass of the structure shown.
Legend:
Otodectes cynotis = experiment: Spot-on efficacy against Otodectes cynotis (ear mites) in cats (Example 12); assay type: in vivo; conditions: live mite count Day 14
Description: The efficacy of two spot-on compositions comprising Compound A at doses of 5 mg/kg and 10 mg/kg against Otodectes cynotis in cats was evaluated compared to an untreated control. Eighteen healthy cats were grouped into three study groups consisting of six cats per group. Cats in the treatment groups were infested with Otodectes cynotis obtained from naturally infested donor cats prior to acclimation on Day −7. Group 1 was an untreated control group. Cats in Groups 2 and 3 were treated once on Day 0 with a spot-on composition comprising Compound A at two different concentrations and doses by application of the formulation directly on the skin in the midline of the neck between the base of the skull and the shoulder blades with a 1 mL disposable syringe. Cats in Group 2 were treated with a spot-on composition containing 5.0% (w/v) Compound A in a carrier containing 40% (v/v) diethyl sebacate (DES) in dimethylisosorbide (DMI) at a dose of 5 mg/kg body weight; and cats in Group 3 were treated with a spot-on composition containing 10.0% (w/v) Compound A in a carrier containing 40% (v/v) DES in DMI at a dose of 10 mg/kg body weight. […] Visible live ear mites (adult or immature) were counted and debris/cerumen level was estimated for both ear ducts. A quantitative assessment of ear mites by ear duct flushing, mite collection and live mite count was performed on Day 14. […]

Ctenocephalides felis = experiment: Spot-on efficacy against Ctenocephalides felis fleas on dogs, 40% DES/DMI (Example 5); assay type: in vivo; conditions: 4.0 mg/kg
Description: (§1) The efficacy of a formulation comprising an isoxazoline compound (Cmpd. A) in a carrier comprising 40% DES/DMI against Ctenocephalides felis fleas and Rhipicephalus sanguineus ticks in Dogs was studied. […] Three treatment groups containing three dogs each were evaluated. All dogs were treated once topically on Day 0 by parting the hair and applying the solution from a syringe directly onto the skin in a single spot on the midline of the neck between the base of the skull and the shoulder blades.
(§2) Treatment Group 1 was a placebo control and received 0.067 mL/kg of body weight. Treatment Group 2 was administered a topical spot-on formulation comprising 6.0% (w/v) Cmpd. A in 40% DES/DMI to deliver a dose of 4.0 mg/kg body weight. Treatment Group 3 was administered a topical spot-on formulation comprising 12% (w/v) Cmpd. A in 40% DES/DMI to deliver a dose of 4.0 mg/kg body weight.
All dogs were infested with approximately 100 C. felis on Days −1, 7, 14, 21, 28, 35 and 42. Fleas were counted upon removal from dogs approximately 24 hours post infestation on Days 1, 8, 15, 22, 29, 36 and 43. The % reduction (efficacy) of each Treatment Group over time is listed in Tables 6A, 6B and 7, respectively.

Haematobia irritans = experiment: Pour-on efficacy against Haematobia irritans (horn fly) in cattle (Example 14); assay type: in vivo; conditions: Group 2: pour-on 10% in DES, 1 ml/10 kg
A. americanum = experiment: Efficacious plasma concentration (EC90) against A. americanum ticks in dogs (Example 13); assay type: in vivo, Amblyomma americanum; conditions: for EC90 (concentration required to achieve 90% efficacy): plasma concentration
Description: Blood samples were collected from all dogs on Days −5, 0 (at 4 h and 12 h), 1, 2, 9, 16, 23, 30, 37 and 44. Plasma samples were analyzed for the concentration of Compound A using a LC/MS/MS method that was GLP validated for the analysis of the compound.
Plasma concentrations of Compound A from dogs in the studies of Examples 1 and 4 were determined according to the description in Example 1, and the plasma concentration versus % efficacy against A. americanum and D. variabilis were fit to a Sigmoidal Emax model. […] Since Compound A is systemically active, the lower concentration of the compound in the plasma required to achieve 90% efficacy from the topical compositions of the invention is surprising and unexpected.

Ixodes ricinus = experiment: Spot-on efficacy against induced Ixodes ricinus tick infestations in cats (Example 10); assay type: in vivo; conditions: for prevention of the infestation of I. ricinus: 2.5% w/v in DMI
Description: The efficacy of spot-on formulations comprising Cmpd. A were studied against induced infestations of Ixodes ricinus ticks in cats. Three treatment groups with six cats per group were randomly allocated: Group 1—Control, untreated; Group 2—Cmpd. A (2.5% w/v in DMI) at 0.1 ml/kg body weight (2.5 mg/kg); and Group 3—Cmpd. A (5.0% w/v in DMI) at 0.1 ml/kg body weight (5 mg/kg). Treatment was administered once on Day 0 and efficacy was assessed based on 48-hour tick (I. ricinus) counts following weekly experimental challenge from Day 7 on. […] In fact, the topical spot-on formulation offered substantial protection against I. ricinus ticks until the last day of assessment—Day 93. Due to limitations on tick availability 5 mg/kg was tested only up to Day 44 with 100% efficacy. The excellent long-lasting efficacy of the formulation of the invention against I. ricinus ticks in cats is very surprising and unexpected.

Rhipicephalus sanguineus = experiment: Spot-on efficacy against Rhipicephalus sanguineus ticks on dogs, 40% DES/DMI (Example 5); assay type: in vivo; conditions: 4.0 mg/kg
Description: as §1, §2

## O=C(CNC(=O)c1ccc(C2=NOC(c3cc(Cl)cc(C(F)(F)F)c3)(C(F)(F)F)C2)c2ccccc12)NCC(F)(F)F (stereo not drawn) [Compound A, 4-[5-[3-chloro-5-(trifluoromethyl)phenyl]-4,5-dihydro-5-(trifluoromethyl)-3-isoxazolyl]-N-[2-oxo-2-[(2,2,2-trifluoroethyl)amino]ethyl]-1-naphthalanecarboxamide]
Otodectes cynotis; Group 2: 5.0% in 40% DES in DMI, 5 mg/kg
  reduced the infestation of ear mites: 99.0%
Otodectes cynotis; Group 3: 10.0% in 40% DES in DMI, 10 mg/kg
  reduced the infestation of ear mites: 100.0%
Ctenocephalides felis; Group 2: 6.0% in 40% DES/DMI, Day 1
  % Reduction: 100.0%
Ctenocephalides felis; Group 2: 6.0% in 40% DES/DMI, Day 8
  % Reduction: 100.0%
Ctenocephalides felis; Group 2: 6.0% in 40% DES/DMI, Day 15
  % Reduction: 100.0%
Ctenocephalides felis; Group 2: 6.0% in 40% DES/DMI, Day 22
  % Reduction: 100.0%
Ctenocephalides felis; Group 2: 6.0% in 40% DES/DMI, Day 29
  % Reduction: 100.0%
Ctenocephalides felis; Group 2: 6.0% in 40% DES/DMI, Day 36
  % Reduction: 100.0%
Ctenocephalides felis; Group 2: 6.0% in 40% DES/DMI, Day 43
  % Reduction: 99.2%
Ctenocephalides felis; Group 3: 12% in 40% DES/DMI, Day 1
  % Reduction: 100.0%
Ctenocephalides felis; Group 3: 12% in 40% DES/DMI, Day 8
  % Reduction: 100.0%
Ctenocephalides felis; Group 3: 12% in 40% DES/DMI, Day 15
  % Reduction: 100.0%
Ctenocephalides felis; Group 3: 12% in 40% DES/DMI, Day 22
  % Reduction: 100.0%
Ctenocephalides felis; Group 3: 12% in 40% DES/DMI, Day 29
  % Reduction: 100.0%
Ctenocephalides felis; Group 3: 12% in 40% DES/DMI, Day 36
  % Reduction: 100.0%
Ctenocephalides felis; Group 3: 12% in 40% DES/DMI, Day 43
  % Reduction: 100.0%
Haematobia irritans; Day 35 (5 h)
  % Reduction: 42.6%
Haematobia irritans; Day 36 (24 h)
  % Reduction: 90.4%
A. americanum; dogs, topical vs oral
  concentration required to achieve 90% efficacy, lower than the concentration required from oral administration: about 42%
A. americanum; dogs, topical compositions, Sigmoidal Emax model
  EC90 (concentration required to achieve 90% efficacy): 0.092 µg/mL (≈ 0.147 µM)
A. americanum; oral dosage form
  EC90 (concentration required to achieve 90% efficacy): 0.158 µg/mL (≈ 0.252 µM)
Ixodes ricinus; 5 mg/kg, up to Day 44
  efficacy against I. ricinus: 100%
Ixodes ricinus; 2.5 mg/kg, until Day 56
  prevention of the infestation of I. ricinus: completely prevented
Ixodes ricinus; 2.5 mg/kg, until at least Day 77
  prevention of the infestation of I. ricinus: > 90%
Ixodes ricinus; Group 2: 2.5% w/v in DMI, 2.5 mg/kg, Day 2
  % Reduction Ticks: 23.71%
Ixodes ricinus; Group 2: 2.5% w/v in DMI, 2.5 mg/kg, Day 9
  % Reduction Ticks: 100.00%
Ixodes ricinus; Group 2: 2.5% w/v in DMI, 2.5 mg/kg, Day 23
  % Reduction Ticks: 99.60%
Ixodes ricinus; Group 2: 2.5% w/v in DMI, 2.5 mg/kg, Day 30
  % Reduction Ticks: 100.00%
Ixodes ricinus; Group 2: 2.5% w/v in DMI, 2.5 mg/kg, Day 37
  % Reduction Ticks: 99.58%
Ixodes ricinus; Group 2: 2.5% w/v in DMI, 2.5 mg/kg, Day 44
  % Reduction Ticks: 100.00%
Ixodes ricinus; Group 2: 2.5% w/v in DMI, 2.5 mg/kg, Day 51
  % Reduction Ticks: 100.00%
Ixodes ricinus; Group 2: 2.5% w/v in DMI, 2.5 mg/kg, Day 58
  % Reduction Ticks: 100.00%
Ixodes ricinus; Group 2: 2.5% w/v in DMI, 2.5 mg/kg, Day 65
  % Reduction Ticks: 99.02%
Ixodes ricinus; Group 2: 2.5% w/v in DMI, 2.5 mg/kg, Day 72
  % Reduction Ticks: 99.21%
Ixodes ricinus; Group 2: 2.5% w/v in DMI, 2.5 mg/kg, Day 79
  % Reduction Ticks: 95.54%
Ixodes ricinus; Group 2: 2.5% w/v in DMI, 2.5 mg/kg, Day 86
  % Reduction Ticks: 84.92%
Ixodes ricinus; Group 2: 2.5% w/v in DMI, 2.5 mg/kg, Day 93
  % Reduction Ticks: 76.65%
Ixodes ricinus; Group 3: 5.0% w/v in DMI, 5 mg/kg, Day 2
  % Reduction Ticks: 70.27%
Ixodes ricinus; Group 3: 5.0% w/v in DMI, 5 mg/kg, Day 9
  % Reduction Ticks: 100.00%
Ixodes ricinus; Group 3: 5.0% w/v in DMI, 5 mg/kg, Day 23
  % Reduction Ticks: 100.00%
Ixodes ricinus; Group 3: 5.0% w/v in DMI, 5 mg/kg, Day 30
  % Reduction Ticks: 100.00%
Ixodes ricinus; Group 3: 5.0% w/v in DMI, 5 mg/kg, Day 37
  % Reduction Ticks: 100.00%
Ixodes ricinus; Group 3: 5.0% w/v in DMI, 5 mg/kg, Day 44
  % Reduction Ticks: 100.00%
Rhipicephalus sanguineus; Group 2: 6.0% in 40% DES/DMI, Day 2
  % Reduction: 100.0%
Rhipicephalus sanguineus; Group 2: 6.0% in 40% DES/DMI, Day 30
  % Reduction: 91.5%
Rhipicephalus sanguineus; Group 2: 6.0% in 40% DES/DMI, Day 31
  % Reduction: 100.0%
Rhipicephalus sanguineus; Group 2: 6.0% in 40% DES/DMI, Day 38
  % Reduction: 85.2%
Rhipicephalus sanguineus; Group 3: 12% in 40% DES/DMI, Day 2
  % Reduction: 100.0%
Rhipicephalus sanguineus; Group 3: 12% in 40% DES/DMI, Day 30
  % Reduction: 72.6%
Rhipicephalus sanguineus; Group 3: 12% in 40% DES/DMI, Day 31
  % Reduction: 100.0%
Rhipicephalus sanguineus; Group 3: 12% in 40% DES/DMI, Day 38
  % Reduction: 51.3%
